Measured values taken from US8946260B2, “17α-hydroxylase/C17,20-lyase inhibitors” (Novartis AG, priority 2010, dated 2015).

target: T1, recombinant Human CYP17 enzyme (17-20 lyase) (Homo sapiens, UniProt P05093); assay: Cytochrome P450, 17-20 lyase (CYP17-lyase) assay, 17-α-hydroxy pregnenolone [21-3H] as substrate; assay type: biochemical; details: not given
T1 construct: made in house; host or cells: A549 cells, adenoviral expression system; purified cell membrane preparations
T1 sequence (P05093 1-508): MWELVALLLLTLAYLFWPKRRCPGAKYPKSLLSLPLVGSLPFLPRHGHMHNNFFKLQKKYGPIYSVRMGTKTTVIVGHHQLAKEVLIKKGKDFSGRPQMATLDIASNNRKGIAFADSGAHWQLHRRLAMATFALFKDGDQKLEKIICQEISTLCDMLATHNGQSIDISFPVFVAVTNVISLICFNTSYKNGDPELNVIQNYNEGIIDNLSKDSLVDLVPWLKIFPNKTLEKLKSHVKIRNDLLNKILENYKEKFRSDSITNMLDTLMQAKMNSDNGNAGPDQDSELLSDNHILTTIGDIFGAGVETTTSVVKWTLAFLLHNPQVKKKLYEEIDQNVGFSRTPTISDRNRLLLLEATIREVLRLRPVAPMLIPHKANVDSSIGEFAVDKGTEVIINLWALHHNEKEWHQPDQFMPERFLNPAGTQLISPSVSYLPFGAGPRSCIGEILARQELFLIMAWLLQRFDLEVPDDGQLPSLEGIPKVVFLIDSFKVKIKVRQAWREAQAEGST
Description: 1) Cytochrome P450, 17-20 Lyase (CYP17-Lyase) Assay Development Using Recombinant Human CYP17 Enzyme and 17-α-Hydroxy Pregnenolone [21-3H] as the Substrate.
Cytochrome P450, 17-α-Hydroxylase, 17-20 lyase (CYP17) is a multi functional enzyme that plays a key role in the biosynthesis of steroid hormones. It catalyses both conventional hydroxylation and also the carbon-carbon bond cleavage reactions (Peter Lee-Robichaud et al, Biochem. J, (1997) 321, 857-63). In the hydroxylation reaction, it converts progesterone and pregnenolone to the corresponding hydroxylated products 17-α-hydroxy progesterone and 17-α-hydroxy pregnenolone. In the lyase reaction, it catalyzes the conversion of these hydroxylated substrates to Androstenedione and Dehydroepiandrosterone (DHEA) respectively. In the Cyp17 lyase assay described here, the conversion of 17-α-hydroxy pregnenolone to Dehydroepiandrosterone and acetic acid is being monitored.
Assay method was adopted from a published protocol with some modifications to suit our requirements (Dmitry N Grigoryev et al, Analytical Biochemistry, (1999) 267, 319-330). The conversion of 17-α-hydroxy pregnenolone to Dehydroepiandrosterone is accompanied by the release of acetic acid. In the Cyp17 lyase assay, 17-α-hydroxy pregnenolone labeled with tritium (3H) at position 21 is used as the substrate. Chloroform extraction removes the radioactive steroids and acetic acid is taken into aqueous layer. The tritiated acetic acid released in the assay thus extracted is quantified to determine the enzyme activity.
Initial buffer conditions were, 50 mM Phosphate buffer, pH 7.5 was used as the starting buffer for Cyp17 lyase activity based on the data published in US patent publication No. US2004/0198773 A1. […] Human Cyp 17 gene was cloned and expressed in Adenoviral expression system in A549 cell lines. The purified cell membrane preparations were used as the source for Human CYP17 enzyme. Total protein concentration: 8 mg/mL.
For routine screening, the assay was set up with 16 μg of enzyme in 50 μL reaction volume. 17α-hydroxy pregnenolone [21-3H] was added to a final concentration of 0.25 μM. NADPH is used at a final concentration of 4.2 mM. Total reaction volume was made up to 50 μL with 50 mM Phosphate buffer pH 7.5. The reaction mixture was incubated at room temperature for 90 minutes with gentle shaking. The reaction was stopped by the addition of 100 μL of buffer. 500 μL of 5% freshly prepared activated charcoal was added to the solution and mixed well by vortexing. The samples were centrifuged at 17568×g for 5 minutes. (14000 rpm). The supernatant was carefully transferred to fresh tube and 1.3 mL of scintillation fluid was added, mixed by vortexing.
The radioactivity was measured in a 1450 MicroBeta TriLux™ scintillation counter from Wallac-Perkin Elmer®, USA. The measurements were carried out in 2.0 mL Eppendorf™ tubes. Each tube was counted for 1 minute. The amount of tritiated acetic acid released is proportional to the lyase activity. Percent lyase activity in presence of inhibitor was calculated using the formula given below.
[formula] • Sample: Enzyme reaction in presence of inhibitor. • Positive control: Enzyme reaction without inhibitor but containing DMSO at 1% final concentration. • Blank—Contains all reagents except enzyme. • % Inhibition=100%−% Lyase activity
For IC50 determination, the % inhibition was plotted as a function of inhibitor concentration. The data was fitted to sigmoidal equation using Graphpad Prism® software IV to generate IC50 values.

SMILES	IC50
CCn1c2c(c3cc(F)ccc31)C(=O)N(c1cnccc1C)CC2 [Example 59A, 5-ethyl-8-fluoro-2-(4-methylpyridin-3-yl)-2,3,4,5-tetrahydro-1H-pyrido[4,3-b]indol-1-one]	29 nM

same assay, conditions: at 10 μM; read-out: hCYP17 Lyase % Inh

inhibition at 10 µM	SMILES
27%	O=C1c2ccsc2CCN1c1cccnc1 [Example 8A, 5-Pyridin-3-yl-6,7-dihydro-5H-thieno[3,2-c]pyridin-4-one]
10%	Cc1ccncc1N1CCc2cc(Cl)c(Cl)cc2C1=O [Example 41A, 6,7-dichloro-2-(4-methylpyridin-3-yl)-3,4-dihydroisoquinolin-1 (2H)-one]
63%	Cc1ccncc1N1CCc2ccc(Oc3ncc(F)cn3)cc2C1=O [Example 37A, 7-(5-fluoropyrimidin-2-yloxy)-2-(4-methylpyridin-3-yl)-3,4-dihydroisoquinolin-1(2H)-one]
35%	Cc1ccncc1N1CCc2ccc(NC(=O)C3CC3)cc2C1=O [Example 25A, Cyclopropanecarboxylic acid [2-(4-methyl-pyridin-3-yl)-1-oxo-1,2,3,4-tetrahydro-isoquinolin-7-yl]-amide]

same assay, conditions: human CYP17 lyase; substrate 0.25 μM; room temperature, 90 minutes

Lyase IC 50 nM Human	SMILES
Not active	O=C1c2ccc(F)cc2CCN1c1cnccc1C(F)(F)F [Example 78A, 6-fluoro-2-(4-(trifluoromethyl)pyridin-3-yl)-3,4-dihydroisoquinolin-1(2H)-one]
NOT ACTIVE	O=c1c2c(ccn1-c1cnccc1C(F)(F)F)[nH]c1ccccc12 [Example 63A, 2-(4-(trifluoromethyl)pyridin-3-yl)-2,5-dihydro-1H-pyrido[4,3-b]indol-1-one]

same assay, conditions: human CYP17 lyase; substrate 0.25 μM; room temperature, 90 minutes; read-out: Lyase IC 50 nM Human

SMILES	IC50
Cc1ccncc1N1CCc2ccc(F)c(Cl)c2C1=O [Example 34A, 8-chloro-7-fluoro-2-(4-methylpyridin-3-yl)-3,4-dihydroisoquinolin-1(2H)-one]	149 nM
Cc1ccncc1N1CCc2cnccc2C1=O [Example 67A, 2-(4-methylpyridin-3-yl)-3,4-dihydro-2,6-naphthyridin-1(2H)-one]	716 nM
CCn1c2c(c3ccccc31)CC(C)N(c1cccnc1)C2=O (centres unmarked) [Example 42A, 9-ethyl-3-methyl-2-(pyridin-3-yl)-2,3,4,9-tetrahydro-1H-pyrido[3,4-b]indol-1-one]	55 nM
Cc1ccncc1N1CCc2ccccc2C1=O [Example 23A, 2-(4-Methyl-pyridin-3-yl)-3,4-dihydro-2H-isoquinolin-1-one]	227 nM
O=C1c2cc(C(F)(F)F)ccc2CCN1c1cnccc1CNC1CC1 [Example 53A, 2-(4-((cyclopropylamino)methyl)pyridin-3-yl)-7-(trifluoromethyl)-3,4-dihydroisoquinolin-1(2H)-one]	50 nM
O=C1c2c(sc3ccc(F)cc23)CCN1c1cnccc1C(F)(F)F [Example 57A, 8-Fluoro-2-(4-trifluoromethylpyridine-3-yl)-3,4-dihydro-2H-benzo[4,5]thieno[3,2-c]pyridin-1-one]	548 nM
CCn1ccc2c1C(=O)N(c1cnccc1C)CC2 [Example 28A, 1-Ethyl-6-(4-methyl-pyridin-3-yl)-1,4,5,6-tetrahydro-pyrrolo[2,3-c]pyridin-7-one]	70 nM
O=C1c2cc(C(F)(F)F)c(Cl)cc2CCN1c1cnccc1C(F)(F)F [Example 85A, 6-chloro-7-(trifluoromethyl)-2-(4-(trifluoromethyl)pyridin-3-yl)-3,4-dihydroisoquinolin-1(2H)-one]	108 nM
CCn1c2c(c3ccccc31)CC(C)N(c1cnccc1C)C2=O (centres unmarked) [Example 46A, 9-Ethyl-3-methyl-2-(4-methyl-pyridin-3-yl)-2,3,4,9-tetrahydro-b-carbolin-1-one]	44 nM
O=C1c2cc(Cl)ccc2CCN1c1cccnc1 [Example 1A, 7-Chloro-2-pyridin-3-yl-3,4-dihydro-2H-isoquinolin-1-one]	60 nM
Cc1ccncc1N1CCc2cc3cn[nH]c3cc2C1=O [Example 69A, 7-(4-methylpyridin-3-yl)-6,7-dihydro-1H-pyrazolo[4,3-g]isoquinolin-8(5H)-one]	93 nM
Cc1ccncc1N1CCc2ccc(-c3ccc(F)cc3)cc2C1=O [Example 3A, 7-(4-Fluoro-phenyl)-2-(4-methyl-pyridin-3-yl)-3,4-dihydro-2H-isoquinolin-1-one]	1210 nM
Cc1ccncc1N1CCc2ccc(C#N)cc2C1=O [Example 32A, 2-(4-methylpyridin-3-yl)-1-oxo-1,2,3,4-tetrahydroisoquinoline-7-carbonitrile]	301 nM

Further lines, results first:

IC50	SMILES
23 nM	O=C1c2cc(Cl)ccc2CCN1c1cnccc1C1CC1 [Example 74A, 7-chloro-2-(4-cyclopropylpyridin-3-yl)-3,4-dihydroisoquinolin-1 (2H)-one]
23 nM	CCn1c2c(c3ccccc31)CCN(c1cnccc1C)C2=O [Example 38A, 9-ethyl-2-(4-methylpyridin-3-yl)-2,3,4,9-tetrahydro-1H-pyrido[3,4-b]indol-1-one]
15 nM	CC1Cc2ccc(C(F)(F)F)cc2C(=O)N1c1cccnc1 (centres unmarked) [Example 43A, 3-Methyl-2-pyridin-3-yl-7-trifluoromethyl-3,4-dihydro-2H-isoquinolin-1-one]
19 nM	O=C1c2cc(I)c(F)cc2CCN1c1cnccc1C(F)(F)F [Example 79A, 6-fluoro-7-iodo-2-(4-(trifluoromethyl)pyridin-3-yl)-3,4-dihydroisoquinolin-1(2H)-one]
11 nM	N#Cc1cc2c(cc1Cl)C(=O)N(c1cnccc1C1CC1)CC2 [Example 91A, 7-chloro-2-(4-cyclopropylpyridin-3-yl)-1-oxo-1,2,3,4-tetrahydroisoquinoline-6-carbonitrile]
44 nM	O=C1c2cc(C(F)(F)F)ccc2CCN1c1cncc2ccccc12 [Example 19A, 7-Trifluoromethyl-3,4-dihydro-[2,4′]biisoquinolinyl-1-one]
37 nM	Cc1ccncc1N1CCc2ccc(Cl)cc2C1=O [Example 2A, 7-Chloro-2-(4-methyl-pyridin-3-yl)-3,4-dihydro-2H-isoquinolin-1-one]
8 nM	CCc1ccncc1N1CCc2ccc(Cl)cc2C1=O [Example 75A, 7-chloro-2-(4-ethylpyridin-3-yl)-3,4-dihydroisoquinolin-1(2H)-one]
4.2 nM	O=C1c2c(sc3ccccc23)CCN1c1cnccc1C1CC1 [Example 76A, 2-(4-cyclopropylpyridin-3-yl)-3,4-dihydrobenzo[4,5]thieno[3,2-c]pyridin-1(2H)-one]
9 nM	Cc1ccncc1N1CCc2[nH]c3ccc(F)cc3c2C1=O [Example 60A, 8-fluoro-2-(4-methylpyridin-3-yl)-2,3,4,5-tetrahydro-1H-pyrido[4,3-b]indol-1-one]
12 nM	Cc1ccncc1N1CCc2ccc(C(F)(F)F)c(F)c2C1=O [Example 47A, 8-Fluoro-2-(4-methyl-pyridin-3-yl)-7-trifluoromethyl-3,4-dihydro-2H-isoquinolin-1-one]
17 nM	COc1ccc2c(c1)C(=O)N(c1cnccc1C)CC2 [Example 26A, 7-Methoxy-2-(4-methyl-pyridin-3-yl)-3,4-dihydro-2H-isoquinolin-1-one]
